From ChEMBL document CHEMBL2331428, “Synthesis of tetrazole analogues of phosphonohydroxamic acids: an attempt to improve the inhibitory activity against the DXR” (Bioorg Med Chem Lett, 2013)
pIC50: −log10 of the molar value. The source made the active and inactive calls. The rule behind the calls is not given here.

Key:
[1] = Inhibition of N-terminal His6-tagged Escherichia coli DXR after 2 mins in presence of NADPH
Escherichia coli = experiment: Antibacterial activity against Escherichia coli assessed as growth inhibition at 400 nmol by disc diffusion method; assay type: functional, organism-based

Row | SMILES | pIC50 [1] | growth inhibition (GI) (Escherichia coli)
1 | O=CN(O)CCCP(=O)(O)O [FOSMIDOMYCIN] | 7.49 | 
2 | CN(O)C(=O)CCCc1nnn[nH]1 | 3.10 | inactive
3 | CN(O)C(=O)CCCCc1nnn[nH]1 | 2.31 | inactive
4 | CN(O)C(=O)CCCP(=O)(O)O | 7.32 | 
5 | CN(O)C(=O)CCc1nnn[nH]1 | 1.33 | inactive
6 | O=C(CCCCc1nnn[nH]1)NO | 1.36 | inactive
